Assay results taken from patent publication US12492186B2, “Bicyclic heterocyclic compounds useful as IRAK4 inhibitors” (BRISTOL-MYERS SQUIBB COMPANY, priority 2019, dated 2025).

system: Human whole blood; assay: IRAK4 Whole Blood Assay (IL-6 levels after stimulation with TLR2 agonist lipoteichoic acid); format: cell-based; details: 10 μg/mL lipoteichoic acid, 5 hours
Protocol: Human whole blood containing the anti-coagulant ACD-A was plated in 384-well plate (25 μL/well) and incubated with compounds for 60 minutes at 37° C. in a 5% CO2 incubator. The blood was stimulated with a TLR2 agonist, 10 μg/mL final concentration of lipoteichoic acid (Invivogen, San Diego, CA) in 25 μL RPMI (Gibco) for 5 hours in a 5% CO2 incubator. At the end of the incubation, plates were centrifuged at 2300 rpm for 5 minutes. Supernatants were harvested and analyzed for IL-6 levels by Flow Cytometry beads assay (BD Biosciences, San Jose, CA).

EC50 | Compound
2200 nM | CC(O)CCNC(=O)c1cnc2ccc(-c3cn[nH]c3)cc2c1NCC(F)F (stereo not shown) [Example 65, 4-((2,2-difluoroethyl)amino)-N-(3-hydroxybutyl)-6-(1H-pyrazol-4-yl)quinoline-3-carboxamide]
758 nM | CC(C)Nc1c(-c2cc(C3CCCCN3)no2)cnc2ccc(-c3cn[nH]c3)cc12 (stereo not shown) [Example 128, N-isopropyl-3-(3-(piperidin-2-yl)isoxazol-5-yl)-6-(1H-pyrazol-4-yl)quinolin-4-amine]

target: IRAK4 (Homo sapiens (Human), UniProt Q9NWZ3); assay: IRAK4 Inhibition Assay; format: biochemical; details: ATP 500 μM; IRAK4 0.6 nM; 60 min room temperature; Caliper LABCHIP 3000
Protocol: The assays were performed in U-bottom 384-well plates. The final assay volume was 30 μL prepared from 15 μL additions of enzyme and substrates (fluoresceinated peptide and ATP) and test compounds in assay buffer (20 mM HEPES pH 7.2, 10 mM MgCl2, 0.015% Brij 35 and 4 mM DTT). The reaction was initiated by the combination of IRAK4 with substrates and test compounds. The reaction mixture was incubated at room temperature for 60 min. and terminated by adding 45 μL of 35 mM EDTA to each sample. The reaction mixture was analyzed on the Caliper LABCHIP® 3000 (Caliper, Hopkinton, MA) by electrophoretic separation of the fluorescent substrate and phosphorylated product. Inhibition data were calculated by comparison to no enzyme control reactions for 100% inhibition and vehicle-only reactions for 0% inhibition. The final concentrations of reagents in the assays are ATP, 500 μM; FL-IPTSPITTTYFFFKKK peptide 1.5 μM; IRAK4, 0.6 nM; and DMSO, 1.6%.

Chain of IRAK4 (Q9NWZ3 whole entry, species assumed): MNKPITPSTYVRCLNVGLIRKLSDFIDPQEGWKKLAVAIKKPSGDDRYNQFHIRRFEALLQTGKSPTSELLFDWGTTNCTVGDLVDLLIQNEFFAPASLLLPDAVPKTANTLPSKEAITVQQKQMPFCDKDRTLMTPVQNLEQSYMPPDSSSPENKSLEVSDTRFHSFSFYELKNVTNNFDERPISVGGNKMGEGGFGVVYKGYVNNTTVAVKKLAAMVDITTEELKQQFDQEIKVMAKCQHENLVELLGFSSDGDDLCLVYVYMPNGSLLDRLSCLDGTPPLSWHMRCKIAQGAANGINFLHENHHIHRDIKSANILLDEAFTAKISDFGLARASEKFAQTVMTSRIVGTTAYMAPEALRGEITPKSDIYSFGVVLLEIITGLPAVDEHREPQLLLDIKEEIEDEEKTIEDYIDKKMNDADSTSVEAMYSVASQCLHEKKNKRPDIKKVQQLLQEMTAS

IC50 | Compound
32.7 nM | CC(C)Nc1c(C(=O)NCCC(=O)N2CCCC2)cnc2ccc(-c3cn[nH]c3)cc12 [Example 50, 4-(isopropylamino)-N-(3-oxo-3-(pyrrolidin-1-yl)propyl)-6-(1H-pyrazol-4-yl)quinoline-3-carboxamide]
32.6 nM | CC(O)CCNC(=O)c1cnc2ccc(-c3cn[nH]c3)cc2c1NC1CC(F)(F)C1 (stereo not shown) [Example 53, 4-((3,3-difluorocyclobutyl)amino)-N-(3-hydroxybutyl)-6-(1H-pyrazol-4-yl)quinoline-3-carboxamide]
34.4 nM | CC(C)Nc1c(C(=O)NCC(=O)N2CCOCC2)cnc2ccc(-c3cn[nH]c3)cc12 [Example 90, 4-(isopropylamino)-N-(2-morpholino-2-oxoethyl)-6-(1H-pyrazol-4-yl)quinoline-3-carboxamide]
212 nM | CC(C)Nc1c(C(=O)NCCc2nnn[nH]2)cnc2ccc(-c3cn[nH]c3)cc12 [Example 110, N-(2-(1H-tetrazol-5-yl)ethyl)-4-(isopropylamino)-6-(1H-pyrazol-4-yl)quinoline-3-carboxamide]
32.2 nM | CC(C)Nc1c(C(=O)NC2CN(S(C)(=O)=O)C2)cnc2ccc(-c3cn[nH]c3)cc12 [Example 92, 4-(isopropylamino)-N-(1-(methylsulfonyl)azetidin-3-yl)-6-(1H-pyrazol-4-yl)quinoline-3-carboxamide]
34.4 nM | O=C(NCCN1CCOCC1)c1cnc2ccc(-c3cn[nH]c3)cc2c1NCC(F)F [Example 63, 4-((2,2-difluoroethyl)amino)-N-(2-morpholinoethyl)-6-(1H-pyrazol-4-yl)quinoline-3-carboxamide]
23 nM | CC(C)Nc1c(C(=O)NCCc2c[nH]cn2)cnc2ccc(-c3cn[nH]c3)cc12 [Example 102, N-(2-(1H-imidazol-4-yl)ethyl)-4-(isopropylamino)-6-(1H-pyrazol-4-yl)quinoline-3-carboxamide]
24.1 nM | CC(C)Nc1c(C(=O)NC2CCCOC2)cnc2ccc(-c3cn[nH]c3)cc12 (stereo not shown) [Example 8, 4-(isopropylamino)-6-(1H-pyrazol-4-yl)-N-(tetrahydro-2H-pyran-3-yl)quinoline-3-carboxamide]
23.3 nM | CC(C)Nc1c(C(=O)NC2CCOCC2)cnc2ccc(-c3cn[nH]c3)cc12 [Example 9, 4-(isopropylamino)-6-(1H-pyrazol-4-yl)-N-(tetrahydro-2H-pyran-4-yl)quinoline-3-carboxamide]
38.6 nM | CC(C)Nc1c(C(=O)N[C@H]2C[C@@H](O)C2)cnc2ccc(-c3cn[nH]c3)cc12 [Example 39, N-((1s,3s)-3-hydroxycyclobutyl)-4-(isopropylamino)-6-(1H-pyrazol-4-yl)quinoline-3-carboxamide]
88.3 nM | CC(C)Nc1c(C(=O)N[C@H](C)CCO)cnc2ccc(-c3cn[nH]c3)cc12 [Example 13, (R)—N-(4-hydroxybutan-2-yl)-4-(isopropylamino)-6-(1H-pyrazol-4-yl)quinoline-3-carboxamide]
30.7 nM | CNC(=O)CCNC(=O)c1cnc2ccc(-c3cn[nH]c3)cc2c1NC(C)C [Example 48, 4-(isopropylamino)-N-(3-(methylamino)-3-oxopropyl)-6-(1H-pyrazol-4-yl)quinoline-3-carboxamide]
29.8 nM | CC(C)Nc1c(C(=O)NCCC(=O)N(C)C)cnc2ccc(-c3cn[nH]c3)cc12 [Example 49, N-(3-(dimethylamino)-3-oxopropyl)-4-(isopropylamino)-6-(1H-pyrazol-4-yl)quinoline-3-carboxamide]

Second part, the compound before the results:

Compound | IC50
CC(C)Nc1c(C(=O)NC[C@@H](F)C(C)(C)O)cnc2ccc(-c3cncnc3)cc12 [Example 5, (R)—N-(2-fluoro-3-hydroxy-3-methylbutyl)-4-(isopropylamino)-6-(pyrimidin-5-yl)quinoline-3-carboxamide] | 31.7 nM
CNc1c(C(N)=O)cnc2ccc(-c3cncs3)cc12 [Example 111, 4-(methylamino)-6-(thiazol-5-yl)quinoline-3-carboxamide] | 1550 nM
CC(C)(O)[C@H](F)CNC(=O)c1cnc2ccc(-c3cn[nH]c3)cc2c1Nc1cnn(CC(F)F)c1 [Example 33, (R)-4-((1-(2,2-difluoroethyl)-1H-pyrazol-4-yl)amino)-N-(2-fluoro-3-hydroxy-3-methylbutyl)-6-(1H-pyrazol-4-yl)quinoline-3-carboxamide] | 157 nM
CC(C)Nc1c(C(=O)Nc2ccc(N3CCOCC3)nc2)cnc2ccc(-c3cn[nH]c3)cc12 [Example 100, 4-(isopropylamino)-N-(6-morpholinopyridin-3-yl)-6-(1H-pyrazol-4-yl)quinoline-3-carboxamide] | 4.5 nM
O=C(NCC1CCS(=O)(=O)CC1)c1cnc2ccc(-c3cn[nH]c3)cc2c1NC1CC1 [Example 116, 4-(cyclopropylamino)-N-((1,1-dioxidotetrahydro-2H-thiopyran-4-yl)methyl)-6-(1H-pyrazol-4-yl)quinoline-3-carboxamide] | 43.7 nM
CC(C)(O)[C@H](F)CNC(=O)c1cnc2ccc(-c3cncs3)cc2c1NC1COC1 [Example 35, (R)—N-(2-fluoro-3-hydroxy-3-methylbutyl)-4-(oxetan-3-ylamino)-6-(thiazol-5-yl) quinoline-3-carboxamide] | 78 nM
CC(C)(O)CCNC(=O)c1cnc2ccc(-c3cn[nH]c3)cc2c1NC1CC(F)(F)C1 [Example 52, 4-((3,3-difluorocyclobutyl)amino)-N-(3-hydroxy-3-methylbutyl)-6-(1H-pyrazol-4-yl)quinoline-3-carboxamide] | 23.9 nM
CC(C)Nc1c(C(=O)NC[C@@H](F)C(C)(C)O)cnc2ccc(-c3ccncc3)cc12 [Example 2, (R)—N-(2-fluoro-3-hydroxy-3-methylbutyl)-4-(isopropylamino)-6-(pyridin-4-yl)quinoline-3-carboxamide] | 25.9 nM
O=C(NCCC(F)(F)F)c1cnc2ccc(-c3cn[nH]c3)cc2c1NCC(F)F [Example 68, 4-((2,2-difluoroethyl)amino)-6-(1H-pyrazol-4-yl)-N-(3,3,3-trifluoropropyl)quinoline-3-carboxamide] | 35.1 nM
CNc1c(C(N)=O)cnc2ccc(-c3cn[nH]c3)cc12 [Example 108, 4-(methylamino)-6-(1H-pyrazol-4-yl)quinoline-3-carboxamide] | 554 nM
CCNc1c(C(=O)NCCC(C)(C)O)cnc2ccc(-c3cn[nH]c3)cc12 [Example 38, 4-(ethylamino)-N-(3-hydroxy-3-methylbutyl)-6-(1H-pyrazol-4-yl)quinoline-3-carboxamide] | 49.2 nM
CCCc1nc(-c2cnc3ccc(-c4cn[nH]c4)cc3c2NC(C)C)n[nH]1 [Example 125, N-isopropyl-3-(5-propyl-1H-1,2,4-triazol-3-yl)-6-(1H-pyrazol-4-yl)quinolin-4-amine] | 83.6 nM
CC(C)(O)CCNc1c(C(N)=O)cnc2ccc(-c3cn[nH]c3)cc12 [Example 99, 4-((3-hydroxy-3-methylbutyl)amino)-6-(1H-pyrazol-4-yl)quinoline-3-carboxamide] | 264 nM
CCNc1c(C(=O)NC[C@@H](F)C(C)(C)O)cnc2ccc(-c3cncs3)cc12 [Example 28, (R)-4-(ethylamino)-N-(2-fluoro-3-hydroxy-3-methylbutyl)-6-(thiazol-5-yl)quinoline-3-carboxamide] | 81.2 nM
CC(C)Nc1c(C(=O)NCCC(C)(C)O)cnc2ccc(-c3ccc(=O)[nH]c3)cc12 [Example 74, N-(3-hydroxy-3-methylbutyl)-4-(isopropylamino)-6-(6-oxo-1,6-dihydropyridin-3-yl)quinoline-3-carboxamide] | 124 nM
CCNc1c(C(=O)NCCC(C)(C)O)cnc2ccc(-c3cncs3)cc12 [Example 37, 4-(ethylamino)-N-(3-hydroxy-3-methylbutyl)-6-(thiazol-5-yl)quinoline-3-carboxamide] | 110 nM
Cc1cc(-c2ccc3ncc(C(=O)NCCC(C)(C)O)c(NC(C)C)c3c2)cnc1F [Example 71, 6-(6-fluoro-5-methylpyridin-3-yl)-N-(3-hydroxy-3-methylbutyl)-4-(isopropylamino)quinoline-3-carboxamide] | 307 nM
CC(=O)N[C@H]1CC[C@H](NC(=O)c2cnc3ccc(-c4ccnc(C#N)c4)nc3c2NC(C)C)CC1 [Example 152, N-((1r,4r)-4-acetamidocyclohexyl)-6-(2-cyanopyridin-4-yl)-4-(isopropylamino)-1,5-naphthyridine-3-carboxamide] | 78 nM
CC(C)(O)CCNC(=O)c1cnc2ccc(-c3cn[nH]c3)cc2c1NCC(F)F [Example 62, 4-((2,2-difluoroethyl)amino)-N-(3-hydroxy-3-methylbutyl)-6-(1H-pyrazol-4-yl)quinoline-3-carboxamide] | 22.3 nM
